Converted amounts (≈) assume the structure as drawn.
Test system: HIV-1 (RF)
Experiment: HIV RNA Assay: Microplate Based Compound Evaluation in HIV-1 Infected MT-2 Cells
Assay type: cell-based
Conditions: Human immunodeficiency virus 1, MT2, 72 h; HIV-1 (RF) in MT-2 cells, 3 days at 37° C.; value to which virus inoculum was standardized (~3×10^5 PFU per assay well); read-out: IC90 value (concentration of compound required to reduce the HIV RNA level by 90%)
Description: Plasmid pDAB 72 containing both gag and pol sequences of BH10 (bp 113-1816) cloned into PTZ 19R was prepared according to Erickson-Viitanen et al. AIDS Research and Human Retroviruses 1989, 5, 577. The plasmid was linearized with Bam HI prior to the generation of in vitro RNA transcripts using the Riboprobe Gemini system II kit (Promega) with T7 RNA polymerase. Synthesized RNA was purified by treatment with RNase free DNAse (Promega), phenol-chloroform extraction, and ethanol precipitation. RNA transcripts were dissolved in water, and stored at -70° C. The concentration of RNA was determined from the A260.
Biotinylated capture probes were purified by HPLC after synthesis on an Applied Biosystems (Foster City, Calif.) DNA synthesizer by addition of biotin to the 5' terminal end of the oligonucleotide, using the biotin-phosphoramidite reagent of Cocuzza, Tet. Lett. 1989, 30, 6287. […]
MT-2 and MT-4 cells were maintained in RPMI 1640 supplemented with 5% fetal calf serum (FCS) for MT-2 cells or 10% FCS for MT-4 cells, 2 mM L-glutamine and 50 μg/mL gentamycin, all from Gibco. […] Infectious titers of HIV-1(RF) stocks were 1-3×10^7 PFU (plaque forming units)/mL as measured by plaque assay on MT-2 cells (see below). […]

## Nc1ccn([C@H]2CC[C@@H](CO)O2)c(=O)n1 [ddC, 2',3'-dideoxycytidine]
  IC90: 0.2 µg/mL (≈ 0.947 µM)
